Source: US8058314B2, “Conductance of improperly folded proteins through the secretory pathway and related methods for treating disease” (Yale University, priority 1999, dated 2011)
“Also recorded” adds a separate entry of the source.

Key:
[1] = tested on: ΔF508 CFTR; experiment: Immunofluorescence localization of CFTR in CFBE290− airway epithelial cells; type: cell-based, human
Protocol: CFPAC and CFBE290^− epithelial cells were grown to confluence on 0.45 micron Transwell filter inserts (Corning Costar, Cambridge, Mass.) under the same conditions described for the short circuit current measurements. Prior to immunofluorescence analysis, filter grown cell monolayers were treated for 90 min with 1 μM thapsigargin at 37° C., present in both the apical and basolateral media compartments. The media was then changed to standard Iscove's growth medium or DMEM without thapsigargin, and cells were incubated for 2 or 4 hours at 37° C. Control cells underwent the same media changes but were not subjected to thapsigargin treatment.
Following the second incubation, the filter grown monolayers were washed once with phosphate buffered saline supplemented with calcium and magnesium (150 mM NaCl, 10 mM NaPi, pH 7.4, 1 mM MgCl2, 0.1 mM CaCl2), after which they were fixed for 10 minutes in −20° C. 100% methanol. Immunofluorescence labeling was performed using the well characterized 169 and 181 antibodies (gift of W. Guggino, Johns Hopkins University) directed against the R domain and the prenucleotide binding fold of the CFTR protein, respectively (Crawford et al., Proc. Nat. Acad. Sci. 88:9262-9266 (1991)) and a monoclonal antibody directed against the α-subunit of the Na,K-ATPase (Gottardi and Caplan, J. Cell Biol. 121:283-293 (1993)).
Incubations with primary and rhodamine-conjugated secondary antibodies were performed as previously described (Gottardi and Caplan, Id.). Labeled cells were examined using a Zeiss LSM 410 laser scanning confocal microscope. All images are the product of 8-fold line averaging. Contrast and brightness settings were chosen so that all pixels were in the linear range. […]
To ensure that the dose of thapsigargin received by the mice was sufficient to rescue ΔF508-CFTR in airway epithelial cells, we examined the effect of nebulized thapsigargin on CFBE290^− cells. […] Filter-grown CFBE290^− cells were exposed to 1 μM nebulized thapsigargin for 3 hours and the distribution of ΔF508-CFTR was evaluated by immunofluorescence.

[2] = tested on: ΔF508 CFTR mice; experiment: Nasal potential difference (NPD) in CF mice homozygous for the ΔF508 mutation; type: in vivo; conditions: nebulized 1 μM thapsigargin or 50 microM curcumin, 3 hours/day for 7-14 days
From the text: Materials and Methods. CF mice, which were the kind gift of Mitch Drumm, have had the ΔF508 mutation introduced into their endogenous copies of the CFTR gene by homologous recombination and are homozygous for the ΔF508 mutation. Construction of these mice is described in Zeiher, G. B., et al., A mouse model for the delta F508 allele of cystic fibrosis. J. Clin. Invest. 96: 2051-2064, 1995, and additional studies of these mice are described in Steagall W K and Drumm M L, Stimulation of cystic fibrosis transmembrane conductance regulator-dependent short-circuit currents across Delta F508 murine intestines. Gastroenterology, 116(6):1379-88, 1999.
Nasal potential difference was measured essentially as described in Grubb, B. R., Vick, R. N., and Boucher, R. C., Hyperabsorption of Na^+ and raised Ca^2+-mediated Cl^− secretion in nasal epithelia of CF mice, Am. […]
After obtaining a stable baseline reading, infusion of Ringers solution was begun, and recording was initiated. After 5 mins of stable reading, the solution was changed successively to: (i) Ringer solution containing amiloride 10^−5 M; (ii) Ringer solution containing 0 mM chloride and 10^−5 M amiloride; (iii) Ringer solution containing 0 mM chloride, 10^−5 M amiloride, and 10^−5 M isoproterenol. NPD was recorded for each solution for 5 minutes of stable values. […]

[3] = tested on: SERCA ATPases; conditions: cited from earlier work

SMILES: C/C=C(/C)C(=O)O[C@H]1C(C)=C2[C@H]([C@@H]1OC(=O)CCCCCCC)[C@@](C)(OC(C)=O)C[C@H](OC(=O)CCC)[C@@]1(O)[C@H]2OC(=O)[C@@]1(C)O [thapsigargin]
- distribution of ΔF508-CFTR ([1]; 1 μM nebulized thapsigargin for 3 hours, air-liquid interface): dramatic redistribution of ΔF508-CFTR to the apical plasmalemma
- ΔF508-CFTR surface delivery ([1]; agent dissolved in media): present to the same extent at the apical surfaces of cells treated with nebulized or dissolved thapsigargin
- basal NPD of treated ΔF508 CF mice [2]: markedly reduced relative to that in untreated CF mice; also recorded: dramatically reduce the basal NPD; also recorded: significantly smaller baseline NPD
- reduction of efficacy as calcium pump inhibitor on loss of the ester groups ([3]; Christensen et al.): at least 40 fold
- potency of SERCA inhibition [3]: subnanomolar
